Laboratory results as given in patent publication US9120776B2, “Condensed heterocyclic compound” (Takeda Pharmaceutical Company Limited, priority 2011, dated 2015).

Key:
RORγt [1] = biological target: T1, RORγt (Homo sapiens, UniProt P51449); test: Jurkat Reporter Test (human IL-17 ROR response element luciferase, RORγt vector); format: cell-based; settings: luminescence level inhibitory rate at test compound 3 μM, Jurkat cells; read-out: inhibitory rate (%)
T1 sequence (P51449 1-497 isoform P51449-2): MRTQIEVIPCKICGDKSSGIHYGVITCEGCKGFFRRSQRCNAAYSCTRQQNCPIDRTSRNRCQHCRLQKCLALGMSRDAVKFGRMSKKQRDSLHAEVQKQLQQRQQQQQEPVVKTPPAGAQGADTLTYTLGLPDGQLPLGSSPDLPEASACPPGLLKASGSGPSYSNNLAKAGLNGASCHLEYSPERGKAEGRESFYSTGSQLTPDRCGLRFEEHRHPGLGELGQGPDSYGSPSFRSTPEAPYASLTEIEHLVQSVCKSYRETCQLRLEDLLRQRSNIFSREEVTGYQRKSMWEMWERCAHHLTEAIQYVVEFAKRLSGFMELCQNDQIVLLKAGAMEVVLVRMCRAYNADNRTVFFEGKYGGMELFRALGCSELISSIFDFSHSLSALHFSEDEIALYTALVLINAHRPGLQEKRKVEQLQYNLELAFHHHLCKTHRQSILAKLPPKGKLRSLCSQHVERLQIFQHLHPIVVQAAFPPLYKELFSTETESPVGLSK
Experimental: The Jurkat cells used for the reporter test were cultured in a culture medium (RPMI (Invitrogen), 10% FCS (AusGeneX), 100 U/mL penicillin, 100 μg/mL streptomycin). On the day of the test, 4×10^7 cells were recovered by a centrifugal operation (1000 rpm, 5 min.) and suspended in PBS (phosphate buffered saline) (Invitrogen). Thereafter, the cells were recovered again by a centrifugal operation, and suspended in 2 mL of R buffer (NEON transfection kit, Invitrogen). […] Gene transfer was performed by Electroporation apparatus (NEON, Invitrogen) under the conditions of pulse voltage 1350 V, interval 10 milliseconds, number of times 3. The cells after gene transfer were suspended in 40 mL of a reaction medium (RPMI, 10% Lipid reduced FCS (HyClone), 10 mM HEPES (pH 7.5), 100 U/mL penicillin, 100 μg/mL streptomycin, 5 μM lovastatin), and plated in a 96 well plate by 90 μL each. A test compound diluted with the reaction medium was added by 10 μL each, and the cells were cultured overnight in an incubator. Bright-Glo (Promega) was added by 100 μL each, and the mixture was stirred at room temperature for 10 min, and the luminescence level was measured by Envision (PerkinElmer).

Th17 cells [2] = test: Mouse Th17 Cell Differentiation Test (IL-17A in culture supernatant, ELISA); format: cell-based; settings: 96 h, inhibitory rate at 10 μM of test compound, mouse CD4 positive naive T cells, 4 days, IL-17A by ELISA
Experimental: CD4 positive naive T cells were collected from the spleen cells of BALB/c mice (female, 8-11w, Charles River Laboratories Japan, Inc.) using CD4+CD62L+ T Cell Isolation kit II (Miltenyi Biotec). The CD4 positive naive T cells in a 96 well plate (3×10^5 cells/well) were stimulated (37° C. for culture) with anti-mouse CD3ε antibody (Bio X cell) (10 μg/mL, solid phase) and anti-CD28 antibody (Bio X cell) (5 μg/mL) for 4 days in the presence of anti-IFN-γ antibody (BioLegend), anti-IL-4 antibody (BioLegend), anti-IL-2 antibody (BioLegend), IL-6, TGF-β and IL-23 to differentiate into Th17 cells. The compound was dissolved in DMSO and then added thereto. The cells were cultured under these conditions for 4 days, and differentiation of the Th17 cells was evaluated by using the concentration of IL-17A, which was measured by ELISA, in the culture supernatant obtained by centrifugation.

Th17 cells [3] = test: Human Th17 Cell Differentiation Test (IL-17A in culture supernatant, ELISA); format: cell-based; settings: 144 h; inhibitory rate at 10 μM of test compound; human CD4 positive naive T cells, 6 days, IL-17A by ELISA
Experimental: CD4 positive naive T cells were isolated from peripheral blood mononuclear cells (PBMC) collected from human peripheral blood by a density gradient centrifugation method. The CD4 positive naive T cells were seeded in a 96 well plate (2×10^4 cells/well), and stimulated (37° C. for culture) with anti-CD 3/28Ab Dynabeads (Invitrogen) for 6 days in the presence of IL-1β, IL-6, IL-23, TGFβ, anti-IFNγ Ab (BioLegend) and anti-IL-4 Ab (BioLegend) to differentiate into Th17 cells. The compound was dissolved in DMSO and then added thereto. After culture for 6 days, the concentration of IL-17A in the culture supernatant obtained by centrifugation was measured by ELISA to evaluate differentiation of the Th17 cells.

human PBMC = test: IL17 Production Test in Human PBMC; format: cell-based; settings: 72 h, inhibitory rate at 10 μM of test compound, anti-CD3/CD28 stimulation, 3 days, IL-17A by ELISA
Experimental: Peripheral blood mononuclear cells (PBMC) collected from human peripheral blood by a density gradient centrifugation method were stimulated by Dynabeads (registered trade mark; anti-CD3/CD28 antibody) and cultured at 37° C. for 3 days. The compound was dissolved in DMSO and then added thereto. After culture for 3 days under such conditions, the concentration of IL-17A in the culture supernatant obtained by centrifugation was measured by ELISA to evaluate the effect of the compound on IL-17 production.

RORγt [4] = biological target: T1, RORγt; test: RORγt Binding Test (TR-FRET, fluorescent-labeled cholesterol); parameters: histidine tag (implied by the Histidine Detection Kit); settings: binding inhibitory rate of fluorescent-labeled cholesterol to RORγt at test compound 1 μM
Experimental: The binding activity of the test compound to RORγt was measured by a time resolved fluorescence resonance energy transfer method (TR-FRET) utilizing histidine-tagged RORγt, fluorescent-labeled cholesterol (BODIPY-cholesterol, AVIVA) and terbium-labeled anti-histidine tag antibody (Invitrogen). First, a test compound diluted with an assay buffer (20 mM Tris-HCl (pH 7.5), 100 mM NaCl, 1 mM DTT, 0.1% BSA) was added to a 384 well plate by 3 μL each. Then, RORγt diluted with an assay buffer to 240 nM was added by 3 μL each, after which fluorescent-labeled cholesterol diluted with the assay buffer to 12 μM was added by 3 μL each, and the mixture was stood at room temperature for 20 min. Thereafter, a terbium-labeled anti-histidine tag antibody diluted with the assay buffer to 8 nM was added by 3 μL each. The mixture was stood at room temperature for 20 min, and fluorescence intensity (excitation wavelength 320 nm, fluorescence wavelength 520 nm, delay time 100 microseconds) was measured by Envision (PerkinElmer).

RORγt [5] = biological target: T1, RORγt; test: Cofactor Recruitment Test (Alpha Screen, biotinylated SRC-1 peptide); format: biochemical; parameters: histidine tag (implied by the Histidine Detection Kit); settings: signal value inhibitory rate at test compound 1 μM
Experimental: Cofactor recruitment test was performed by Alpha Screen (Histidine Detection Kit, PerkinElmer) method. First, a test compound diluted with an assay buffer (50 mM Tris-HCl (pH 7.5), 50 mM KCl, 1 mM DTT, 0.1% BSA) was added to a 384 well plate by 5 μL each. […] The mixture was stood in a dark place for 1 hr, and the signal value was measured by Envision (PerkinElmer).

**Q.** How did the inhibition at 3 µM (RORγt [1]) turn out when `CCCn1c2c(c3cc(NC(=O)CC(C)CC(=O)Nc4ccc(C#N)cc4)ccc31)CCCC2` (stereo not drawn) [Example 19, N-(4-cyanophenyl)-3-methyl-N′-(9-propyl-2,3,4,9-tetrahydro-1H-carbazol-6-yl)pentanediamide] was run?
**A.** Its inhibition at 3 µM is 103%.

**Q.** And the inhibition at 10 µM (Th17 cells [2])?
**A.** Its inhibition at 10 µM is 95.8%.

**Q.** What about the inhibition at 10 µM (Th17 cells [3]) of the same compound?
**A.** Its inhibition at 10 µM is 95.2%.

**Q.** And the inhibition at 10 µM (human PBMC)?
**A.** Its inhibition at 10 µM is 87%.

**Q.** And the inhibition at 1 µM (RORγt [4])?
**A.** Its inhibition at 1 µM is 98.9%.

**Q.** And the inhibition at 1 µM (RORγt [5])?
**A.** The inhibition at 1 µM was 101%.

**Q.** Which results are given for `CCn1c(C)c(C)c2cc(NC(=O)CC(C)CC(=O)Nc3ccc(C#N)cc3)ccc21` (stereo not drawn) [Example 3, N-(4-cyanophenyl)-N′-(1-ethyl-2,3-dimethyl-1H-indol-5-yl)-3-methylpentanediamide]?
**A.** inhibition at 3 µM (RORγt [1]): 82.6%; inhibition at 10 µM (Th17 cells [2]): 97.1%; inhibition at 10 µM (Th17 cells [3]): 80%; inhibition at 10 µM (human PBMC): 73.3%; inhibition at 1 µM (RORγt [4]): 88.2%; inhibition at 1 µM (RORγt [5]): 99.7%

**Q.** Which results are given for `CCn1c2ccccc2c2cc(NC(=O)CC(C)CC(=O)Nc3ccc(C#N)c(C(F)(F)F)c3)ccc21` (stereo not drawn) [Example 18, N-[4-cyano-3-(trifluoromethyl)phenyl]-N′-(9-ethyl-9H-carbazol-3-yl)-3-methylpentanediamide]?
**A.** inhibition at 10 µM (Th17 cells [2]; Mus musculus, CD4 positive): 95.8%; inhibition at 10 µM (Th17 cells [3]): 98.5%; inhibition at 10 µM (human PBMC): 96%

**Q.** What does the source list for `CCn1c2ccccc2c2cc(NC(=O)CCCC(=O)Nc3ccc(C#N)cc3)ccc21` [Example 16, N-(4-cyanophenyl)-N′-(9-ethyl-9H-carbazol-3-yl)pentanediamide]?
**A.** inhibition at 10 µM (Th17 cells [2]; Mus musculus, CD4 positive): 96%; inhibition at 10 µM (Th17 cells [3]): 96.2%; inhibition at 10 µM (human PBMC): 91%

**Q.** `CCn1c2ccccc2c2cc(NC(=O)CC(C)(O)CCOc3ccc(C#N)c(Cl)c3)ccc21` (stereo not drawn) [Example 30, 5-(3-chloro-4-cyanophenoxy)-N-(9-ethyl-9H-carbazol-3-yl)-3-hydroxy-3-methylpentanamide] was tested. Which inhibition at 3 µM (RORγt [1]) did it give?
**A.** The inhibition at 3 µM was 92.5%.

**Q.** What about the inhibition at 10 µM (Th17 cells [2]) of the same compound?
**A.** The inhibition at 10 µM was 96.1%.

**Q.** And the inhibition at 10 µM (Th17 cells [3])?
**A.** Its inhibition at 10 µM is 100%.

**Q.** What about the inhibition at 10 µM (human PBMC) of the same compound?
**A.** The inhibition at 10 µM was 100%.

**Q.** And the inhibition at 1 µM (RORγt [4])?
**A.** Its inhibition at 1 µM is 94.4%.

**Q.** What about the inhibition at 1 µM (RORγt [5]) of the same compound?
**A.** Its inhibition at 1 µM is 100%.

**Q.** How did the inhibition at 10 µM (Th17 cells [2]; Mus musculus, CD4 positive) turn out when `CCn1c2c(c3cc(NC(=O)CC(C)CC(=O)Nc4ccc(C#N)cc4)ccc31)CCCC2` (stereo not drawn) [Example 4, N-(4-cyanophenyl)-N′-(9-ethyl-2,3,4,9-tetrahydro-1H-carbazol-6-yl)-3-methylpentanediamide] was run?
**A.** The inhibition at 10 µM was 97%.

**Q.** What about the inhibition at 10 µM (Th17 cells [3]) of the same compound?
**A.** Its inhibition at 10 µM is 100%.

**Q.** And the inhibition at 10 µM (human PBMC)?
**A.** Its inhibition at 10 µM is 88.3%.

**Q.** With `CC(C)Cn1c2c(c3cc(NC(=O)CC(C)CC(=O)Nc4ccc(C#N)cc4)ccc31)CCCC2` (stereo not drawn) [Example 20, N-(4-cyanophenyl)-3-methyl-N′-[9-(2-methylpropyl)-2,3,4,9-tetrahydro-1H-carbazol-6-yl]pentanediamide] as the compound, how does the inhibition at 3 µM (RORγt [1]) read?
**A.** Its inhibition at 3 µM is 102%.

**Q.** And the inhibition at 10 µM (Th17 cells [2])?
**A.** Its inhibition at 10 µM is 95.8%.

**Q.** And the inhibition at 10 µM (Th17 cells [3])?
**A.** Its inhibition at 10 µM is 89.9%.

**Q.** And the inhibition at 10 µM (human PBMC)?
**A.** Its inhibition at 10 µM is 84%.

**Q.** And the inhibition at 1 µM (RORγt [4])?
**A.** Its inhibition at 1 µM is 98.7%.

**Q.** And the inhibition at 1 µM (RORγt [5])?
**A.** Its inhibition at 1 µM is 101%.
